Series [1] addresses T1, Rho-associated protein kinase (Homo sapiens, UniProt O75116+Q13464).
The target of series [2] is T1, Rho-associated protein kinase. As to the kind of experiment: Inhibition of TPA-induced Rho kinase dependent MBS phosphorylation in MDCK 2 cells. The format is functional, cell-based. As to conditions: Canis lupus familiaris.
The target in series [3] is Rho-associated protein kinase 2 (Rattus norvegicus) (UniProt Q62868). Briefly: Ex vivo inhibition of Rho kinase activity in Sprague-Dawley rat serum at 30 mg/kg, po after 4 hrs. The format is organism-based. Further details: dose 30 mg/kg; scale not given: the % may be the effect or the level left.
The target is the same in series [4]. Briefly: Ex vivo inhibition of Rho kinase activity in Sprague-Dawley rat serum at 30 mg/kg, po after 8 hrs. The class given is organism-based. Further details: dose 30 mg/kg; scale not given: the % may be the effect or the level left.
The target is the same in series [5]. As to the kind of experiment: Ex vivo inhibition of Rho kinase activity in Sprague-Dawley rat serum at 30 mg/kg, po after 1 hrs. The format is organism-based. Further details: dose 30 mg/kg; scale not given: the % may be the effect or the level left.
Series [6] is described as follows: Inhibition of MCP1-induced chemotaxis in U937 cells overexpressing CCR2. The following applies: u-937.
The nature of series [7]: Metabolic stability in rat liver microsome at 10 uM after 30 mins. The following applies: liver microsomes.

These results are taken from ChEMBL document CHEMBL1144546, “Design and synthesis of rho kinase inhibitors (III)” (Bioorg Med Chem, 2007).

Each structure is given as a SMILES string.

The term IC50 denotes the concentration needed to halve the response being measured. What is called fraction remaining is the share of the starting amount still present when the sample was taken.

Rho-associated protein kinase 2 (Rattus norvegicus), sequence (Q62868 whole entry, looked up): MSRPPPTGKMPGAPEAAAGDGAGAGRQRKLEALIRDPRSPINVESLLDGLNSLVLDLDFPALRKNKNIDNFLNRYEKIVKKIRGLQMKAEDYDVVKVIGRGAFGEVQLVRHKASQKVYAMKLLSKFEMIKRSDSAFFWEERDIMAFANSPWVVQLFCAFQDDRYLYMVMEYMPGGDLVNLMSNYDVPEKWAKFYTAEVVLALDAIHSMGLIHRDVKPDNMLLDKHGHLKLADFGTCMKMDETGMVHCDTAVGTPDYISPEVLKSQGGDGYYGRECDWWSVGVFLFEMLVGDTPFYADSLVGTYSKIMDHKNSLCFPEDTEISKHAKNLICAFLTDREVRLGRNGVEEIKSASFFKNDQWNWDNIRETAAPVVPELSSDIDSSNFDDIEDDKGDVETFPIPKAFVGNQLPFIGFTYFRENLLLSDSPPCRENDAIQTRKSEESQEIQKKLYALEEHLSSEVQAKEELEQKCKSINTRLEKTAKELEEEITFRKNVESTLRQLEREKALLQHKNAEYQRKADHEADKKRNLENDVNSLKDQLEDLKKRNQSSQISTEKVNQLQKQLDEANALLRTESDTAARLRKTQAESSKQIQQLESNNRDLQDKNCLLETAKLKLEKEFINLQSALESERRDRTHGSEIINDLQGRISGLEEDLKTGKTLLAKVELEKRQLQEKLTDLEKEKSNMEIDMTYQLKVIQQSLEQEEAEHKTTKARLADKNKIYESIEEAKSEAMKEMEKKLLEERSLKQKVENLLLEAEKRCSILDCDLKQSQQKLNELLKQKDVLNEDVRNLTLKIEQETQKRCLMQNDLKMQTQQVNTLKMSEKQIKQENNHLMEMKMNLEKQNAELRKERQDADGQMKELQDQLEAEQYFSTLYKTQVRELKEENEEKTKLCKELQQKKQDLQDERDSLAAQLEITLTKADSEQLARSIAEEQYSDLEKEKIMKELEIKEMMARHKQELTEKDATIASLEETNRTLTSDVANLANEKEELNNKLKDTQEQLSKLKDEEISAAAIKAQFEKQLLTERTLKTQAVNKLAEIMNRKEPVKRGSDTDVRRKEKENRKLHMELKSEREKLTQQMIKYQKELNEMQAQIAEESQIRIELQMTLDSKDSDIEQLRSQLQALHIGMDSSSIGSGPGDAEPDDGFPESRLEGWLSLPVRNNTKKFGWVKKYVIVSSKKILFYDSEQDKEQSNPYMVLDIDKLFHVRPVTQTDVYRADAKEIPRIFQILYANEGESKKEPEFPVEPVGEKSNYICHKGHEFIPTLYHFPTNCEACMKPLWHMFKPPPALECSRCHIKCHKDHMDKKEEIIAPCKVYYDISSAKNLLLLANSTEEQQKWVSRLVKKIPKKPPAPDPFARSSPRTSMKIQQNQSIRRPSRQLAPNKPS
T1 sequence (O75116 whole entry, looked up): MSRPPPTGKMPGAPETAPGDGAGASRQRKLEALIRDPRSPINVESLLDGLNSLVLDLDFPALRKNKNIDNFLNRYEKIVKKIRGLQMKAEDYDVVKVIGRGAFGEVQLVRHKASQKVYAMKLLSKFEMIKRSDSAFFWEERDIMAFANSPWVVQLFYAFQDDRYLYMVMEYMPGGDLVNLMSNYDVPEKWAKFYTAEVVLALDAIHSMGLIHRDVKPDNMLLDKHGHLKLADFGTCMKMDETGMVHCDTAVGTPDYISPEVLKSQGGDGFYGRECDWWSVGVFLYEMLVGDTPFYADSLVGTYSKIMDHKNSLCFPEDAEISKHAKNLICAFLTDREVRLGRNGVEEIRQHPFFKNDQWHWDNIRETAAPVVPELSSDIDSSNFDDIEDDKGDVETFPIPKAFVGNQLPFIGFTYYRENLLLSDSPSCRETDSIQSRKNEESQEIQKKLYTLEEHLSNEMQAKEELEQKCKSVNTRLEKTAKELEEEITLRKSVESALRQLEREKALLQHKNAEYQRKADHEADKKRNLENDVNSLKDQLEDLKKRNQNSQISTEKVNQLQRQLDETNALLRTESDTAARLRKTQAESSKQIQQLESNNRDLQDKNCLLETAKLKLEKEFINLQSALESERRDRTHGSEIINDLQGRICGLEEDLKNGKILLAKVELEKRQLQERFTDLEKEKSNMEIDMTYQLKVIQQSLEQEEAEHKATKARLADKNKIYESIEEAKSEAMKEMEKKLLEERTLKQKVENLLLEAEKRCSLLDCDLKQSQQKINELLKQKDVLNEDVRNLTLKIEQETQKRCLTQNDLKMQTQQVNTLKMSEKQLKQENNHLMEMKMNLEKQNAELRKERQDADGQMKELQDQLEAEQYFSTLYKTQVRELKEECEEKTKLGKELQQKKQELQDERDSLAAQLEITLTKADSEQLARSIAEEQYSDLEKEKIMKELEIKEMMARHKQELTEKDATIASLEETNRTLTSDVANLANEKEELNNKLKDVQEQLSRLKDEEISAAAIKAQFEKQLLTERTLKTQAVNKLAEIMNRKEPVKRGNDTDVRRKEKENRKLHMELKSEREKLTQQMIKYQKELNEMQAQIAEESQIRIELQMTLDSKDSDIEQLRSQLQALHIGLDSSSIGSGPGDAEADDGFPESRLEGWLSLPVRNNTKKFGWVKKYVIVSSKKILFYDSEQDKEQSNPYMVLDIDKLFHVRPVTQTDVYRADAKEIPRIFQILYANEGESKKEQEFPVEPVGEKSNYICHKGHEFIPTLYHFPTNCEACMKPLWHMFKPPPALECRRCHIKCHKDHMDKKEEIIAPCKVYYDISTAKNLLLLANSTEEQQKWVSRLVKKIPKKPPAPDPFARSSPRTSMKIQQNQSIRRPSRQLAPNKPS
T1 sequence (Q13464 whole entry, looked up): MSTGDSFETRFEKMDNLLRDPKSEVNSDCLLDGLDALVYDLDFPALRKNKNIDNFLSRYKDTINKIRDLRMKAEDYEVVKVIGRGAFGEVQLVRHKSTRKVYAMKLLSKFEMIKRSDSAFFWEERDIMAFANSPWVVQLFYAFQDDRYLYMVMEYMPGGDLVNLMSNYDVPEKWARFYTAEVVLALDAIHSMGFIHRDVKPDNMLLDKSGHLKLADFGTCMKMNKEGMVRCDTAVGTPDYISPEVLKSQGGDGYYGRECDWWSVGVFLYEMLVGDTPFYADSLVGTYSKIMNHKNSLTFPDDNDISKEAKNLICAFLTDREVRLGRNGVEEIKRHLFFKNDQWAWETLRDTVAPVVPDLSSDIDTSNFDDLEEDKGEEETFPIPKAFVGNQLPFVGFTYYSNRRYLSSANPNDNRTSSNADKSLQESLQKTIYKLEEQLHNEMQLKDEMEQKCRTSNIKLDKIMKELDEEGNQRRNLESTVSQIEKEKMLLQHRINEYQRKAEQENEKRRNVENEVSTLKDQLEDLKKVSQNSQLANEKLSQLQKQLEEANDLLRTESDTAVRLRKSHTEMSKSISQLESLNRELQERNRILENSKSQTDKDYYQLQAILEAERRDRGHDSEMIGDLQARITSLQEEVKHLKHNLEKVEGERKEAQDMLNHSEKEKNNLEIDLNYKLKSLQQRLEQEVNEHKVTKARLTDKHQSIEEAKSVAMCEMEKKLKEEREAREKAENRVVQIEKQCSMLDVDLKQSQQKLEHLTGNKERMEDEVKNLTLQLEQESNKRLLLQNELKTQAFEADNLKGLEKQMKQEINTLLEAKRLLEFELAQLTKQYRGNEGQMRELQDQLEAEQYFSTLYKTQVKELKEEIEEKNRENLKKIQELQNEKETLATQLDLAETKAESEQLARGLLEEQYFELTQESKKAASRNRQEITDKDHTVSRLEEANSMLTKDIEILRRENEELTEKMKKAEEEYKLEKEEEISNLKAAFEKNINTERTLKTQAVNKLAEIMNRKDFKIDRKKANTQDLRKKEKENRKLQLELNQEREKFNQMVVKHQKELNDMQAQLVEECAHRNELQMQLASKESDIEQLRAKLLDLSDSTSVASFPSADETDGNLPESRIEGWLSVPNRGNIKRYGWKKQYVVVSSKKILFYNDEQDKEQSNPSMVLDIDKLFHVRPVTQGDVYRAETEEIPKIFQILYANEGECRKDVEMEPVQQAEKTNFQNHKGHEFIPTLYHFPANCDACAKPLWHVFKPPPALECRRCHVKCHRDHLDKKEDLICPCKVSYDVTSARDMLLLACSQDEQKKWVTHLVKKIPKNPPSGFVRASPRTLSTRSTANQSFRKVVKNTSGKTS

Molecule `c1ccc(CN2CCC(Nc3cccc4cnccc34)CC2)cc1` displayed an IC50 in series [1] of 0.14 µM.

Consider `Clc1ccccc1CN1CCC(Nc2cccc3cnccc23)C1` (stereo unspecified), for which, in series [1], the IC50 was determined as 0.1 µM.

As to `c1ccc(CCN[C@H]2CC[C@H](Nc3cccc4cnccc34)CC2)cc1`, the IC50 in series [1] was 0.44 µM.

For `Nc1cccc(CN2CC[C@@H](Nc3cccc4cnccc34)C2)c1`, the Activity result is “Dose-dependent effect” in series [2], 42% in series [3], 26% in series [4] and 52% in series [5]. Moreover, the IC50 in series [1] was determined as 0.025 µM.

In series [1], `Clc1cccc(CN2CCCC(Nc3cccc4cnccc34)C2)c1` (stereo unspecified) returned a half-maximal inhibitory concentration (IC50) of 0.265 µM.

In turn, `CCCN[C@H]1CC[C@@H](Nc2cccc3cnccc23)CC1` returned an IC50 in series [1] of 0.18 µM.

Take `CC(C)CN1CCC(Nc2cccc3cnccc23)CC1`: the IC50 in series [1] was 0.21 µM.

As for `O=S(=O)(c1cccc2cnccc12)N1CCCNCC1` [FASUDIL], in series [6], the 50% inhibitory concentration (IC50) worked out at 35 µM.

For the molecule `c1cc(N[C@H]2CC[C@H](NC3CC3)CC2)c2ccncc2c1`, the IC50 in series [1] amounted to 0.07 µM.

Consider `Clc1ccc(CN2CCC(Nc3cccc4cnccc34)C2)cc1` (stereo unspecified), for which the 50% inhibitory concentration (IC50) in series [1] amounted to 0.065 µM.

Take `Clc1cccc(CN2CCC(Nc3cccc4cnccc34)C2)c1` (stereo unspecified): in series [1], the IC50 stood at 0.065 µM.

Molecule `Nc1ccc(CN2CCC(Nc3cccc4cnccc34)C2)cc1` (stereo unspecified) returned an IC50 in series [1] of 0.235 µM.

In the case of `Fc1ccc(CN2CCC(Nc3cccc4cnccc34)C2)cc1` (stereo unspecified), the IC50 in series [1] turned out to be 0.095 µM.

`CC(C)CCN1CCCC(Nc2cccc3cnccc23)C1` (stereo unspecified) came in with an IC50 in series [1] of 0.27 µM.

For the molecule `Nc1cccc(CN2CC[C@H](Nc3cccc4cnccc34)C2)c1`, in series [1], the IC50 amounted to 0.31 µM. Besides, the values for the Activity in series [3], in series [4] and in series [5] were 17%, 0% and 30%, respectively.

As to `Fc1cccc(F)c1CN1CCC(Nc2cccc3cnccc23)C1` (stereo unspecified), in series [1], the IC50 is 0.075 µM.

Molecule `CCCN[C@H]1CC[C@H](Nc2cccc3cnccc23)CC1` displayed an IC50 in series [1] of 0.18 µM.

As to `Nc1ccccc1CN1CCC(Nc2cccc3cnccc23)C1` (stereo unspecified), in series [1], the IC50 was 0.205 µM.

For `CCCN1CCC(Nc2cccc3cnccc23)CC1`, the IC50 in series [1] was 0.345 µM.

`Nc1cccc(CN2CCC(Nc3cccc4cnccc34)C2)c1` (stereo unspecified) returned an amount remaining at 0.5 h, 10 µM in series [7] of 67%. In series [1], this molecule came in with an IC50 of 0.275 µM.

`Clc1ccccc1CN1CCCC(Nc2cccc3cnccc23)C1` (stereo unspecified) yielded an IC50 in series [1] of 0.21 µM.

`c1ccc(CCN[C@H]2CC[C@@H](Nc3cccc4cnccc34)CC2)cc1` had an IC50 in series [1] of 0.58 µM.

As to `c1cc(N[C@H]2CC[C@@H](NC3CC3)CC2)c2ccncc2c1`, in series [1], the IC50 turned out to be 0.195 µM.
